These are literature values, as cited in patent EP4459286A1, “KIT FOR QUANTITATIVELY DETERMINING TACROLIMUS IN WHOLE BLOOD BY LOW-RESISTANCE LATEX-ENHANCED IMMUNE COMPETITION METHOD, AND USE THEREOF” (SHANGHAI YUNZE BIOTECHNOLOGY CO., LTD, priority 2021, dated 2023).

Molecules are shown by their SMILES. Read-outs that look alike come from different tables or passages of the source.

For data set [1] the following is noted: rescue therapy, cyclosporine ineffective.
The conditions of data set [2]: compared with cyclosporine.

Regarding `C=CC[C@@H]1/C=C(\C)C[C@H](C)C[C@H](OC)[C@H]2O[C@@](O)(C(=O)C(=O)N3CCCC[C@H]3C(=O)O[C@H](/C(C)=C/[C@@H]3CC[C@@H](O)[C@H](OC)C3)[C@H](C)[C@@H](O)CC1=O)[C@H](C)C[C@@H]2OC` [tacrolimus, Tacrolimus], the figures for the success rate in data set [1] (kidney transplantation patients) and in data set [1] (liver transplantation patients) were 74% and 87%, respectively. In addition, the “effect of preventing rejection in various organ transplants” value in data set [2] is reported as “superior to that of cyclosporine”.
